Reference: patent publication US20180244699A1, “1-HYDROXY-3H-2,1-BENZOXABOROLE DERIVATIVES AND THEIR USE AS MICROBIOCIDES” (Syngenta Participations AG, priority 2015, published 2018)

Tested on: Gaeumannomyces graminis
Experiment: Gaeumannomyces graminis / liquid culture (take-all of cereals)
Assay type: cell-based
Settings: growth inhibition photometrically 4-5 days after application, compared to untreated control
Outline: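 Mycelial fragments from cryogenic storage in potato dextrose broth added to compound in DMSO, 96-well format. Incubated at 24° C; growth inhibition read photometrically 4-5 days after application.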

Structure (SMILES)	inhibition of growth at 20 ppm [%]
COc1c(C(=O)NCc2ccc(Cl)cc2)ccc2c1B(O)OC2 [Compound 6, N-[(4-chlorophenyl)methyl]-1-hydroxy-7-methoxy-3H-2,1-benzoxaborole-6-carboxamide]	≥ 80
COc1c(C(=O)OCn2nc(C)cc2C)ccc2c1B(O)OC2 [Compound 103, (3,5-dimethylpyrazol-1-yl)methyl 1-hydroxy-7-methoxy-3H-2,1-benzoxaborole-6-carboxylate]	≥ 80
COc1c(C(=O)OCCOC(C)C)ccc2c1B(O)OC2 [Compound 109, 2-isopropoxyethyl 1-hydroxy-7-methoxy-3H-2,1-benzoxaborole-6-carboxylate]	≥ 80

Tested on: Monographella nivalis (Microdochium nivale)
Experiment: Monographella nivalis (Microdochium nivale) / liquid culture (foot rot cereals)
Assay type: cell-based
Settings: growth inhibition photometrically 4-5 days after application, compared to untreated control
Outline: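 Conidia from cryogenic storage were mixed into potato dextrose broth and added to wells holding test compound in DMSO. Incubation was at 24° C, with growth inhibition measured photometrically 4-5 days after application.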

Structure (SMILES)	inhibition of growth at 20 ppm [%]
COc1c(C(=O)NCc2ccc(Cl)cc2)ccc2c1B(O)OC2 [Compound 6, N-[(4-chlorophenyl)methyl]-1-hydroxy-7-methoxy-3H-2,1-benzoxaborole-6-carboxamide]	≥ 80
COc1c(C(=O)NCCc2ccccc2)ccc2c1B(O)OC2 [Compound 33, 1-hydroxy-7-methoxy-N-phenethyl-3H-2,1-benzoxaborole-6-carboxamide]	≥ 80
COc1c(C(=O)OCCOC(C)C)ccc2c1B(O)OC2 [Compound 109, 2-isopropoxyethyl 1-hydroxy-7-methoxy-3H-2,1-benzoxaborole-6-carboxylate]	≥ 80

Tested on: Mycosphaerella arachidis (Cercospora arachidicola)
Experiment: Mycosphaerella arachidis (Cercospora arachidicola) / liquid culture (early leaf spot)
Assay type: cell-based
Settings: growth inhibition photometrically 4-5 days after application, compared to untreated control
Method: 9. Mycosphaerella arachidis (Cercospora arachidicola)/Liquid Culture (Early Leaf Spot) Conidia of the fungus from cryogenic storage are directly mixed into nutrient broth (PDB potato dextrose broth). After placing a (DMSO) solution of test compound into a microtiter plate (96-well format), the nutrient broth containing the fungal spores is added. The test plates are incubated at 24° C. and the inhibition of growth is determined photometrically 4-5 days after application.

Structure (SMILES)	inhibition of growth at 20 ppm [%]
CNC(=O)c1ccc2c(c1OC)B(O)OC2 [Compound 8, 1-hydroxy-7-methoxy-N-methyl-3H-2,1-benzoxaborole-6-carboxamide]	≥ 80

Tested on: Phytophthora infestans
Experiment: whole plant or invertebrate
Assay type: in vivo
Settings: in Solanum lycopersicum, foliar, read-out: control of Phytophthora infestans

Structure (SMILES)	pest or weed control at 200 ppm [%]
COc1c(C(=O)OCn2nc(C)cc2C)ccc2c1B(O)OC2 [Compound 103, (3,5-dimethylpyrazol-1-yl)methyl 1-hydroxy-7-methoxy-3H-2,1-benzoxaborole-6-carboxylate]	≥ 80
COc1c(C(=O)OCCOC(C)C)ccc2c1B(O)OC2 [Compound 109, 2-isopropoxyethyl 1-hydroxy-7-methoxy-3H-2,1-benzoxaborole-6-carboxylate]	≥ 80

Tested on: Puccinia recondite f. sp. tritici
Experiment: Puccinia recondite f. sp. tritici / wheat / leaf disc preventative (brown rust)
Assay type: in vivo
Settings: foliar, wheat leaf segments, inoculated 1 day after application, compared to untreated control
Method: 13. Puccinia recondite f. Sp. Tritici/Wheat/Leaf Disc Preventative (Brown Rust) Wheat leaf segments cv. Kanzler are placed on agar in multiwell plates (24-well format) and sprayed with the formulated test compound diluted in water. The leaf disks are inoculated with a spore suspension of the fungus 1 day after application. The inoculated leaf segments are incubated at 19° C. and 75% rh under a light regime of 12 h light/12 h darkness in a climate cabinet and the activity of a compound is assessed as percent disease control compared to untreated when an appropriate level of disease damage appears in untreated check leaf segments (7-9 days after application).

Structure (SMILES)	pest or weed control at 200 ppm [%]
COc1c(C(=O)NCc2ccccc2F)ccc2c1B(O)OC2 [Compound 5, N-[(2-fluorophenyl)methyl]-1-hydroxy-7-methoxy-3H-2,1-benzoxaborole-6-carboxamide]	≥ 80
COc1c(C(=O)NCc2ccc(Cl)cc2)ccc2c1B(O)OC2 [Compound 6, N-[(4-chlorophenyl)methyl]-1-hydroxy-7-methoxy-3H-2,1-benzoxaborole-6-carboxamide]	≥ 80
CNC(=O)c1ccc2c(c1OC)B(O)OC2 [Compound 8, 1-hydroxy-7-methoxy-N-methyl-3H-2,1-benzoxaborole-6-carboxamide]	≥ 80
COc1c(C(=O)NCCc2ccccc2)ccc2c1B(O)OC2 [Compound 33, 1-hydroxy-7-methoxy-N-phenethyl-3H-2,1-benzoxaborole-6-carboxamide]	≥ 80
COc1c(C(=O)NC(C)C)ccc2c1B(O)OC2 [Compound 34, 1-hydroxy-N-isopropyl-7-methoxy-3H-2,1-benzoxaborole-6-carboxamide]	≥ 80
COc1c(C(=O)Nc2cnoc2)ccc2c1B(O)OC2 [Compound 35, 1-hydroxy-N-isoxazol-4-yl-7-methoxy-3H-2,1-benzoxaborole-6-carboxamide]	≥ 80

Tested on: Pythium ultimum
Experiment: Pythium ultimum / liquid culture (seedling damping off)
Assay type: cell-based
Settings: Globisporangium ultimum, growth inhibition photometrically 2-3 days after application, compared to untreated control
Outline: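 Fungal mycelia fragments and oospores from fresh liquid culture mixed into potato dextrose broth and added to DMSO solutions of test compound. Incubated at 24° C.; growth inhibition read photometrically 2-3 days after application.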

Structure (SMILES)	inhibition of growth at 20 ppm [%]
COc1c(C(=O)NCc2ccccc2F)ccc2c1B(O)OC2 [Compound 5, N-[(2-fluorophenyl)methyl]-1-hydroxy-7-methoxy-3H-2,1-benzoxaborole-6-carboxamide]	≥ 80
COc1c(C(=O)NCc2ccc(Cl)cc2)ccc2c1B(O)OC2 [Compound 6, N-[(4-chlorophenyl)methyl]-1-hydroxy-7-methoxy-3H-2,1-benzoxaborole-6-carboxamide]	≥ 80
CNC(=O)c1ccc2c(c1OC)B(O)OC2 [Compound 8, 1-hydroxy-7-methoxy-N-methyl-3H-2,1-benzoxaborole-6-carboxamide]	≥ 80
COc1c(C(=O)NC(C)C)ccc2c1B(O)OC2 [Compound 34, 1-hydroxy-N-isopropyl-7-methoxy-3H-2,1-benzoxaborole-6-carboxamide]	≥ 80
COc1c(C(=O)Nc2cnoc2)ccc2c1B(O)OC2 [Compound 35, 1-hydroxy-N-isoxazol-4-yl-7-methoxy-3H-2,1-benzoxaborole-6-carboxamide]	≥ 80
COc1c(C(=O)OCn2nc(C)cc2C)ccc2c1B(O)OC2 [Compound 103, (3,5-dimethylpyrazol-1-yl)methyl 1-hydroxy-7-methoxy-3H-2,1-benzoxaborole-6-carboxylate]	≥ 80
COc1c(C(=O)OCCOC(C)C)ccc2c1B(O)OC2 [Compound 109, 2-isopropoxyethyl 1-hydroxy-7-methoxy-3H-2,1-benzoxaborole-6-carboxylate]	≥ 80

Tested on: not given
Experiment: not given
Settings: not given

Structure (SMILES)	melting point [°C]
COc1c(C(=O)O)ccc2c1B(O)OC2 [Compound 131, 1-hydroxy-7-methoxy-3H-2,1-benzoxaborole-6-carboxylic acid]	181 to 182.4
